Assay [1] addresses hSK2 (Homo sapiens, UniProt Q9H2S1). In words: Assay for compound activity towards hSK channels (86Rb+ efflux). Format: cell-based. To be noted: 86Rb+ efflux stimulated with calcium ionophore; drug 0.01 to 30 μM in EBSS; read-out: hSK2 Inhibitory Activity. The procedure:
20.1 Assay for Compound Activity Towards hSK Channels
Cells expressing small conductance, calcium activated potassium channels, such as SK-like channels were loaded with ^86Rb^+ by culture in media containing ^86RbCl. Following loading, the culture media was removed and the cells were washed in EBSS to remove residual traces of ^86Rb^+. Cells were preincubated with the drug (0.01 to 30 μM in EBSS) and then ^86Rb^+ efflux was stimulated by exposing cells to EBSS solution supplemented with a calcium ionophore, such as ionomycin, in the continued presence of the drug. After a suitable efflux period, the EBSS/ionophore solution was removed from the cells and the ^86Rb^+ content was determined by Cherenkov counting (Wallac Trilux). Cells were then lysed with a SDS solution and the ^86Rb^+ content of the lysate was determined. Percent ^86Rb^+ efflux was calculated according to the following equation: (^86Rb^+ content in EBSS/(^86Rb^+ content in EBSS+^86Rb^+ content of the lysate))×100 20.2 Results

Assay [2] concerns the target T1, recombinant human SK4 (hIK1 or hKCa4) channels (Homo sapiens, UniProt O15554+P0DP23).
T1 construct: host or cells: HEK 293
To be noted: applied to the inside of SK4 channel-expressing membrane patches; cited from earlier work.

In assay [3] the target is SK2 subtype channels (Rattus norvegicus, UniProt P70604). To be noted: patch clamp; cited from earlier work.

pIC50: −log10 of the molar value. Where only a bound is given, the exact number is not on record here.

Turning to `CN(c1ccccn1)c1nccc(-c2ccccn2)n1` [Methyl-pyridin-2-yl-(4-pyridin-2-yl-pyrimidin-2-yl)-amine], the pIC50 in assay [1] was 4.52 to 5.30.

`FC(F)(F)c1ccc(Nc2cc(-c3ccccn3)nc(-c3ccccn3)n2)nc1` [(2,6-Di-pyridin-2-yl-pyrimidin-4-yl)-(5-trifluoromethyl-pyridin-2-yl)-amine]: the pIC50 in assay [1] is 4.52 to 5.30.

Turning to cobalt, in assay [2], the “activation of SK4 channels” value is listed as “did not activate”.

With `Clc1ccc(Nc2nccc(-c3ccccn3)n2)nc1` [(5-Chloro-pyridin-2-yl)-(4-pyridin-2-yl-pyrimidin-2-yl)-amine], the pIC50 in assay [1] was 6.00 to 7.00.

As for Barium, the “activation of SK4 channels” value in assay [2] is “activated SK4 channels in a concentration-dependent manner”.

On to lead, for which, in assay [2], the “activation of SK4 channels” value was “activated SK4 channels in a concentration-dependent manner”.

Consider `COc1cnc(-c2ccccn2)nc1Nc1ccc(N(C)C)cn1` [N^2-(5-Methoxy-2-pyridin-2-yl-pyrimidin-4-yl)-N5,N5-dimethyl-pyridine-2,5-diamine], for which the pIC50 in assay [1] was 6.00 to 7.00.

`COc1cnc(-c2ccccn2)nc1Nc1ccc(-c2cccc(F)c2)cn1` [[5-(3-Fluoro-phenyl)-pyridin-2-yl]-(5-methoxy-2-pyridin-2-yl-pyrimidin-4-yl)-amine]: the pIC50 in assay [1] is 6.00 to 7.00.

Take `COc1ccc(Nc2nc(-c3ccccn3)ncc2OC)nc1` [(5-Methoxy-pyridin-2-yl)-(5-methoxy-2-pyridin-2-yl-pyrimidin-4-yl)-amine]: in assay [1], the pIC50 was over 7.00.

As for `COc1cnc(-c2ccccn2)nc1NNc1ccccn1` [N-(5-Methoxy-2-pyridin-2-yl-pyrimidin-4-yl)-N′-pyridin-2-yl-hydrazine], the pIC50 in assay [1] is 4.52 to 5.30.

With magnesium, in assay [2], the “activation of SK4 channels” value is “did not activate”.

`COc1cnc(-c2ccccn2)nc1Nc1ccc(N2CCN(C)CC2)cn1` [(5-Methoxy-2-pyridin-2-yl-pyrimidin-4-yl)-[5-(4-methyl-piperazin-1-yl)-pyridin-2-yl]-amine]: the pIC50 in assay [1] was 6.00 to 7.00.

Take `COc1cnc(-c2ccccn2)nc1Nc1ccc(N2CCC(C)CC2)cn1` [(5-Methoxy-2-pyridin-2-yl-pyrimidin-4-yl)-(4-methyl-3,4,5,6-tetrahydro-2H-[1,3′]bipyridinyl-6′-yl)-amine]: the pIC50 in assay [1] was over 7.00.

Regarding `Cc1cccc(-c2ccnc(Nc3ccccn3)n2)n1` [[4-(6-methyl-pyridin-2-yl)-pyrimidin-2-yl]-pyridin-2-yl-amine], the pIC50 in assay [1] is 5.30 to 6.00.

For `COc1cnc(-c2ccccn2)nc1Nc1ccc(N2CCCC2=O)cn1` [1-[6-(5-Methoxy-2-pyridin-2-yl-pyrimidin-4-ylamino)-pyridin-3-yl]-pyrrolidin-2-one], in assay [1], the pIC50 is over 7.00.

For the molecule `COc1cnc(-c2ccccn2)nc1Nc1ccccn1` [(5-Methoxy-2-pyridin-2-yl-pyrimidin-4-yl)-pyridin-2-yl-amine], in assay [1], the pIC50 is 6.00 to 7.00.

As for `COc1cnc(-c2ccccn2)nc1Nc1cc(C)ccn1` [(5-Methoxy-2-pyridin-2-yl-pyrimidin-4-yl)-(4-methyl-pyridin-2-yl)-amine], the pIC50 in assay [1] is over 7.00.

In the case of `COc1cnc(-c2ccccn2)nc1Nc1ccc(Cl)cn1` [(5-Chloro-pyridin-2-yl)-(5-methoxy-2-pyridin-2-yl-pyrimidin-4-yl)-amine], in assay [1], the pIC50 is 6.00 to 7.00.

Consider `FC(F)(F)c1ccc(Nc2nccc(-c3ccccn3)n2)nc1` [(4-Pyridin-2-yl-pyrimidin-2-yl)-(5-trifluoromethyl-pyridin-2-yl)-amine], for which the pIC50 in assay [1] was 4.52 to 5.30.

For `c1ccc(Nc2cc(-c3ccccn3)nc(-c3ccccn3)n2)nc1` [(2,6-Di-pyridin-2-yl-pyrimidin-4-yl)-pyridin-2-yl-amine], in assay [1], the pIC50 was 4.52 to 5.30.

Regarding calcium, the “activation of SK4 channels” value in assay [2] was “activated SK4 channels in a concentration-dependent manner”.

For `Nc1c2c(nc3ccccc13)CCCC2` [tacrine], the “block of SK2 channel currents” value in assay [3] is given as “block SK2 channel currents with micromolar affinity”.

For cadmium, the “activation of SK4 channels” value in assay [2] was “activated SK4 channels in a concentration-dependent manner”.

Take `Clc1cc(-c2ccccn2)nc(-c2ccccn2)n1` [4-Chloro-2,6-di-pyridin-2-yl-pyrimidine]: the pIC50 in assay [1] was 5.30 to 6.00.

For `COc1cnc(-c2ccccn2)nc1Nc1ccc(-c2ccccc2)cn1` [(5-Methoxy-2-pyridin-2-yl-pyrimidin-4-yl)-(5-phenyl-pyridin-2-yl)-amine], in assay [1], the pIC50 is 6.00 to 7.00.

Turning to `NC(=O)N1c2ccccc2C=Cc2ccccc21` [carbamazepine], the “block of SK2 channel currents” value in assay [3] is given as “block SK2 channel currents with micromolar affinity”.

For zinc, the “activation of SK4 channels” value in assay [2] is listed as “did not activate”.

On to `Clc1ccc(Nc2ccnc(-c3ccccn3)n2)nc1` [(5-Chloro-pyridin-2-yl)-(2-pyridin-2-yl-pyrimidin-4-yl)-amine], for which the pIC50 in assay [1] was 5.30 to 6.00.

`c1ccc(-c2ccc(Nc3nccc(-c4ccccn4)n3)nc2)cc1` [(5-Phenyl-pyridin-2-yl)-(4-pyridin-2-yl-pyrimidin-2-yl)-amine]: in assay [1], the pIC50 is 6.00 to 7.00.

Take `CN(C)CCC=C1c2ccccc2CCc2ccccc21` [amitriptyline]: in assay [3], the “block of SK2 channel currents” value was “block SK2 channel currents with micromolar affinity”.

Regarding `Cc1cccc(-c2nccc(Nc3ccccn3)n2)n1` [[2-(6-methyl-pyridin-2-yl)-pyrimidin-4-yl]-pyridin-2-yl-amine], in assay [1], the pIC50 was 5.30 to 6.00.

For `COc1cnc(-c2ccccn2)nc1Nc1ccc(-c2cccs2)cn1` [(5-Methoxy-2-pyridin-2-yl-pyrimidin-4-yl)-(5-thiophen-2-yl-pyridin-2-yl)-amine], the pIC50 in assay [1] was over 7.00.

Consider `COc1cnc(-c2ccccn2)nc1Nc1ccc(N2CCCC2)cn1` [(5-Methoxy-2-pyridin-2-yl-pyrimidin-4-yl)-(5-pyrrolidin-1-yl-pyridin-2-yl)-amine], for which the pIC50 in assay [1] was over 7.00.

For `COc1cnc(-c2ccccn2)nc1Nc1ccc(-c2ccc(C)o2)cn1` [(5-Methoxy-2-pyridin-2-yl-pyrimidin-4-yl)-[5-(5-methyl-furan-2-yl)-pyridin-2-yl]-amine], the pIC50 in assay [1] is 6.00 to 7.00.

For `COc1cnc(-c2ccccn2)nc1Nc1ccc(-c2ccsc2)cn1` [(5-Methoxy-2-pyridin-2-yl-pyrimidin-4-yl)-(5-thiophen-3-yl-pyridin-2-yl)-amine], in assay [1], the pIC50 is over 7.00.

As to strontium, the “activation of SK4 channels” value in assay [2] is recorded as “activated SK4 channels in a concentration-dependent manner”.

As for `Cc1nc(-c2ccccn2)nc(Nc2ccc(C(F)(F)F)cn2)c1Cl` [(5-Chloro-6-methyl-2-pyridin-2-yl-pyrimidin-4-yl)-(5-trifluoromethyl-pyridin-2-yl)-amine], in assay [1], the pIC50 is 4.52 to 5.30.

As to `Cc1ccnc(Nc2nccc(-c3ccccn3)n2)c1` [(4-Methyl-pyridin-2-yl)-(4-pyridin-2-yl-pyrimidin-2-yl)-amine], the pIC50 in assay [1] is over 7.00.

For the molecule `COc1cnc(-c2ccccn2)nc1Nc1ccc(C(F)(F)F)cn1` [(5-Methoxy-2-pyridin-2-yl-pyrimidin-4-yl)-(5-trifluoromethyl-pyridin-2-yl)-amine], the pIC50 in assay [1] is 4.52 to 5.30.

As to `c1ccc(Nc2nc(-c3ccccn3)nc3ccccc23)nc1` [Pyridin-2-yl-(2-pyridin-2-yl-quinazolin-4-yl)-amine], in assay [1], the pIC50 is 6.00 to 7.00.

Turning to `COc1cnc(-c2ccccn2)nc1Nc1ccc([N+](=O)[O-])cn1` [(5-Methoxy-2-pyridin-2-yl-pyrimidin-4-yl)-(5-nitro-pyridin-2-yl)-amine], the pIC50 in assay [1] was 4.52 to 5.30.

For `COc1cnc(-c2ccccn2)nc1Nc1ccc(Br)cn1` [(5-Bromo-pyridin-2-yl)-(5-methoxy-2-pyridin-2-yl-pyrimidin-4-yl)-amine], the pIC50 in assay [1] is 4.52 to 5.30.

Regarding `COc1cnc(-c2ccccn2)nc1Nc1ccc(N)cn1` [N^2-(5-Methoxy-2-pyridin-2-yl-pyrimidin-4-yl)-pyridine-2,5-diamine], the pIC50 in assay [1] is over 7.00.

For the molecule `c1ccc(Nc2nc(-c3ccccn3)c3ccccc3n2)nc1` [Pyridin-2-yl-(4-pyridin-2-yl-quinazolin-2-yl)-amine], the pIC50 in assay [1] is 4.52 to 5.30.

Turning to `Cc1cc(Nc2ccccn2)nc(-c2ccccn2)n1` [(6-methyl-2-pyridin-2-yl-pyrimidin-4-yl)-pyridin-2-yl-amine], the pIC50 in assay [1] was 4.52 to 5.30.

For iron, the “activation of SK4 channels” value in assay [2] was “did not activate”.

Consider `c1ccc(Nc2nccc(-c3ccccn3)n2)nc1` [Pyridin-2-yl-(4-pyridin-2-yl-pyrimidin-2-yl)-amine], for which, in assay [1], the pIC50 was over 7.00.

Consider `COc1cnc(-c2ccccn2)nc1Nc1ccc(F)cn1` [(5-Fluoro-pyridin-2-yl)-(5-methoxy-2-pyridin-2-yl-pyrimidin-4-yl)-amine], for which the pIC50 in assay [1] is 6.00 to 7.00.
